In US12162858B2, “Quinoline derivatives as inhibitors of AXL/MER RTK and CSF1R” (QURIENT CO., LTD., priority 2018, dated 2024):
Read-outs that look alike come from different tables or passages of the source.

Experiments:
Axl = molecular target: T1, Axl (Homo sapiens, UniProt P30530); assay: LanthaScreen Eu kinase binding assay for Axl
T1 sequence (P30530 26-894): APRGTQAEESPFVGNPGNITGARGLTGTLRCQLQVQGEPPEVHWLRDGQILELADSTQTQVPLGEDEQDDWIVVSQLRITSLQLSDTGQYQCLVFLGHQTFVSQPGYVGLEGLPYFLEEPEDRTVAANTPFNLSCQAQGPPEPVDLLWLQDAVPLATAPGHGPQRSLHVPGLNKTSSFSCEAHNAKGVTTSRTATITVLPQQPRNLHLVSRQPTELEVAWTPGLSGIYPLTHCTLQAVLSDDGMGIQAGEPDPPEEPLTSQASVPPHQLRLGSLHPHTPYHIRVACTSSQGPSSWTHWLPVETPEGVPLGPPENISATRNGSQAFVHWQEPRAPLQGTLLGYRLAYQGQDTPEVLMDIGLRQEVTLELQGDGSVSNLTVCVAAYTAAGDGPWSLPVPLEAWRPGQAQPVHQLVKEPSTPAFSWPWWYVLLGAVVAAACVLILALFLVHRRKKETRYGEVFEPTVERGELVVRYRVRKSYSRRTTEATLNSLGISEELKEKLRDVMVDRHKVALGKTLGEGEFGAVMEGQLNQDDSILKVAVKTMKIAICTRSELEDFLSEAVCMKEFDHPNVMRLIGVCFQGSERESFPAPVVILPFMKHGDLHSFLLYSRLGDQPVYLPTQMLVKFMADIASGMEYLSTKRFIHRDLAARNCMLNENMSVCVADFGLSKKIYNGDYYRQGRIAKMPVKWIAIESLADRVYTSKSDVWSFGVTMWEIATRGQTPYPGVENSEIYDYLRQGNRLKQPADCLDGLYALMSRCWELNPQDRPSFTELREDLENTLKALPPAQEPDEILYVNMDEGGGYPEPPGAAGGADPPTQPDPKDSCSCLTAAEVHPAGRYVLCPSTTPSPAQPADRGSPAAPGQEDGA
Experimental: LanthaScreen® Eu Kinase Binding assays were conducted at Life Technologies using the manufacturer's specifications for each kinase indicated.
Briefly, the principle behind this assay is based upon the binding and displacement of an Alexa Fluor 647-labeled tracer to the kinase of interest. Binding of the tracer to the kinase is detected using an EU-labeled anti-tag antibody. Simultaneous binding of both the tracer and antibody to the kinase gives rise to a FRET-signal. Binding of an inhibitor to the kinase competes for binding with the tracer, resulting in a loss of FRET-signal.
A given compound was diluted in DMSO to make a stock compound solution. The stock compound solution was serially diluted over eight steps in DMSO. Each diluted compound solution in DMSO was diluted in kinase buffer. Afterwards four kinds of working solution were prepared. First, Tracer-Working solution consists of Tracer 236 and Kinase Buffer. Second, Axl, Mer, Tyro3 or Met/anti-GST-AB-Working solution contained one of the kinases Axl, and Mer or anti-GST-AB (=anti glutathione-S-transferase antibody) in Kinase Buffer. Third, anti-GST-AB-Working solution was made with anti-GST-AB and Kinase Buffer. Last, in the DMSO-Working solution DMSO was added to Kinase Buffer to a final concentration to 3%. Each of the four kinds of working solutions were separately added to the assay plate and then incubated for 1 h at room temperature. After incubation, the assay plate was measured with respect to the FRET-Signal with the EnVision (Perkin Elmer) using the program LanthaHTRF-Assay. Data evaluation was done in the Quattro Workflow software. Kd (the equilibrium dissociation constant) values were calculated relative to vehicle (DMSO) control wells.

CSF1R (M-NFS-60 cells) = assay: Cell Titer-Glo viability assay using M-NFS-60 cells; format: cell-based; conditions: Mus musculus, read-out: Cellular CSF1R activity by M-NFS-60 viability assay (IC50 activity range)
Experimental: M-NFS-60 cells were cultured in RPMI-1640 medium containing 10% FBS, 0.05 mM 2-Mercaptoethanol, penicillin (100 U/ml)/streptomycin ([…]) and supplemented with 62 ng/ml recombinant human M-CSF at 37° C./5% CO2. Aliquots of the cells were seeded into a 96-well plate (2×10^5 cells in 100 μl/well) and then incubated at 37° C./5% CO2 1 h. Dissolve compound in 100% DMSO to make 10 mM stock solutions (Aliquots stored in the Nitrogen Cabinet). Dilute 10 mM compounds solutions for 2-fold in 100% DMSO to get 5 mM solutions (10 μl+10 μl DMSO), and then make a 3-fold serial dilution (10 μl+20 μl DMSO) for 10 doses. For reference compounds: Dilute 10 mM compounds solutions for 20-fold in 100% DMSO to get 0.5 mM solutions (2 μl+38 μl DMSO), and then make a 3-fold serial dilution (10 μl+20 μl DMSO) for 8 doses. The 96-well plate was equilibrated at room temperature for 30 min. 50 μl of CellTiter-Glo® Reagent added to each well and mixed for 2 min on an orbital shaker to induce cell lysis. The 96-well plate was incubated at room temperature for 10 min to stabilize luminescent signal. Luminescent was measured […] by EnVison plate reader. Calculations and Formulas: The following calculations and formulas are used for data analysis using XL Fit software: The curve fitting was made using the Sigmoidal Dose-Response Model (Fit model, 205).

[1] = comparison of compounds of present invention (**) vs compounds of WO2016/166250 (*), read-out: Binding activity Axl (Kd)
[2] = read-out: Axl kinase binding activity (Kd)

Row | Kd (Axl; [1]) [µM] | Kd (Axl; [2]) [µM] | Compound | IC50 (CSF1R (M-NFS-60 cells)) [µM]
1 |  | < 0.1 | CCn1cc(OC(C)C)c(C(=O)Nc2ccc(Oc3ccnc4cc(OC)c(OC)cc34)cn2)n1 [Compound 6] | < 1
2 |  | < 0.1 | CCCn1cc(OCC(F)(F)F)c(C(=O)Nc2ccc(Oc3ccnc4cc(OC)c(OC)cc34)cn2)n1 [Compound 7] | < 1
3 |  | < 0.1 | CCn1cc(OCC2CCC2)c(C(=O)Nc2ccc(Oc3ccnc4cc(OC)c(OC)cc34)cn2)n1 [Compound 8] | < 1
4 |  | < 0.1 | COc1cc2nccc(Oc3ccc(NC(=O)c4nn(CCN(C)C)cc4OCC(F)(F)F)nc3)c2cc1OC [Compound 9] | < 1
5 | 0.0032 | < 0.1 | COCCn1cc(OCC(F)(F)F)c(C(=O)Nc2ccc(Oc3ccnc4cc(OC)c(OC)cc34)cn2)n1 [Compound 10] | < 1
6 |  | < 0.1 | CNCCn1cc(OCC(F)(F)F)c(C(=O)Nc2ccc(Oc3ccnc4cc(OC)c(OC)cc34)cn2)n1 [Compound 11] | < 1
7 |  | < 0.1 | CCCn1cc(OCC(F)F)c(C(=O)Nc2ccc(Oc3ccnc4cc(OC)c(OC)cc34)cn2)n1 [Compound 12] | < 1
8 | 0.019 | < 0.1 | COc1cc2nccc(Oc3ccc(NC(=O)c4n[nH]cc4OCC(F)(F)F)nc3)c2cc1OC [Compound 16] | < 1
9 | 0.0014 | < 0.1 | COc1cc2nccc(Oc3ccc(NC(=O)c4nn(CC5COC5)cc4OCC(F)(F)F)nc3)c2cc1OC [Compound 92] | < 1
10 |  | < 0.1 | COc1cc2nccc(Oc3ccc(NC(=O)c4nn(C5CCN(C)C5)cc4OCC(F)(F)F)cc3F)c2cc1OC (stereo not drawn) [Compound 96] | 1 to 10
11 |  | < 0.1 | COc1cc2nccc(Oc3ccc(NC(=O)c4nn(CC5COC5)cc4OCC(F)(F)F)cc3F)c2cc1OC [Compound 97] | 1 to 10
12 |  | 0.1 to 0.5 | COc1cc2nccc(Oc3ccc(NC(=O)c4nn(C5CCN(C)C5)cc4OCC(F)(F)F)cc3C)c2cc1OC (stereo not drawn) [Compound 98] | 1 to 10
13 |  | < 0.1 | COc1cc2nccc(Oc3ccc(NC(=O)c4nn(CC5COC5)cc4OCC(F)(F)F)cc3C)c2cc1OC [Compound 99] | 1 to 10
14 |  | < 0.1 | COc1cc2nccc(Oc3ccc(NC(=O)c4nn(C5CCN(C)C5)cc4OCC(F)(F)F)cc3)c2cc1OC (stereo not drawn) [Compound 100] | 1 to 10
15 |  | < 0.1 | COc1cc2nccc(Oc3ccc(NC(=O)c4nn(CC5COC5)cc4OCC(F)(F)F)cc3)c2cc1OC [Compound 101] | 1 to 10
16 |  | < 0.1 | COc1cc2nccc(Oc3ccc(NC(=O)c4nn(C)cc4OCC(F)(F)F)nn3)c2cc1OC [Compound 102] | 1 to 10
17 |  | < 0.1 | COc1cc2nccc(Oc3ccc(NC(=O)c4nn(CC(C)C)cc4OCC(F)(F)F)cn3)c2cc1OC [Compound 103] | 1 to 10
18 |  | < 0.1 | COCCn1cc(OCC(F)(F)F)c(C(=O)Nc2ccc(Oc3ccnc4cc(OC)c(OC)cc34)nc2)n1 [Compound 104] | ≥ 10
19 |  | < 0.1 | CCCn1cc(OCCOC)c(C(=O)Nc2ccc(Oc3ccnc4cc(OC)c(OC)cc34)cn2)n1 [Compound 105] | < 1
20 |  | < 0.1 | CCCn1cc(OCC2COC2)c(C(=O)Nc2ccc(Oc3ccnc4cc(OC)c(OC)cc34)cn2)n1 [Compound 106] | < 1

Row | Kd (Axl; [1]) [µM] | Kd (Axl; [2]) [µM] | Compound | IC50 (CSF1R (M-NFS-60 cells)) [µM]
21 |  | < 0.1 | COCCOc1cn(C2CC2)nc1C(=O)Nc1ccc(Oc2ccnc3cc(OC)c(OC)cc23)cn1 [Compound 107] | 1 to 10
22 |  | < 0.1 | COc1cc2nccc(Oc3ccc(NC(=O)c4nn(C5CC5)cc4OC(C)C)nc3)c2cc1OC [Compound 108] | < 1
23 |  | < 0.1 | COc1cc2nccc(Oc3ccc(NC(=O)c4nn(C5CC5)cc4OCC(F)F)nc3)c2cc1OC [Compound 109] | < 1
24 |  | < 0.1 | COc1cc2nccc(Oc3ccc(NC(=O)c4nn(C5CC5)cc4OCCF)nc3)c2cc1OC [Compound 110] | < 1
25 |  | < 0.1 | COc1cc2nccc(Oc3ccc(NC(=O)c4nn(C5CC5)cc4OCC4CCC4)nc3)c2cc1OC [Compound 111] | 1 to 10
26 |  | < 0.1 | COc1cc2nccc(Oc3ccc(NC(=O)c4nn(C5CC5)cc4OCC(F)(F)F)nn3)c2cc1OC [Compound 112] | 1 to 10
27 |  | < 0.1 | COc1cc2nccc(Oc3ccc(NC(=O)c4nn(C5CC5)cc4OCCF)nn3)c2cc1OC [Compound 113] | 1 to 10
28 |  | < 0.1 | CCCn1cc(OCC(F)(F)F)c(C(=O)Nc2ccc(Oc3ccnc4cc(OC)c(OC)cc34)c(C(F)(F)F)c2)n1 [Compound 114] | 1 to 10
29 |  | < 0.1 | COc1cc2nccc(Oc3ccc(NC(=O)c4nn(CCOC5CC5)cc4OCC(F)(F)F)c(F)c3)c2cc1OC [Compound 115] | 1 to 10
30 |  | < 0.1 | COc1cc2nccc(Oc3ccc(NC(=O)c4nn(CCOC5CC5)cc4OCC(F)(F)F)cc3F)c2cc1OC [Compound 116] | 1 to 10
31 |  | < 0.1 | COc1cc2nccc(Oc3ccc(NC(=O)c4nn(CCOC5CC5)cc4OCC(F)(F)F)cc3C)c2cc1OC [Compound 117] | < 1
32 |  | < 0.1 | COc1cc2nccc(Oc3ccc(NC(=O)c4nn(CCOC5CC5)cc4OCC(F)(F)F)cc3)c2cc1OC [Compound 118] | 1 to 10
33 |  | 0.1 to 0.5 | CNCCn1cc(OCC(F)(F)F)c(C(=O)Nc2ccc(Oc3ccnc4cc(OC)c(OC)cc34)cc2)n1 [Compound 119] | 1 to 10
34 |  | < 0.1 | COc1cc2nccc(Oc3ccc(NC(=O)c4nn(CCOC5CC5)cc4OCC(F)(F)F)nn3)c2cc1OC [Compound 120] | 1 to 10
35 |  | < 0.1 | COc1cc2nccc(Oc3ccc(NC(=O)c4nn(C5CCCC5)cc4OCC(F)(F)F)nn3)c2cc1OC [Compound 121] | < 1
36 |  | 0.1 to 0.5 | COc1cc2nccc(Oc3ccc(NC(=O)c4nn(C5CCNC5)cc4OCC(F)(F)F)nn3)c2cc1OC (stereo not drawn) [Compound 122] | 1 to 10
37 |  | < 0.1 | COc1cc2nccc(Oc3ccc(NC(=O)c4nn(CC5COC5)cc4OCC(F)(F)F)nn3)c2cc1OC [Compound 123] | 1 to 10
38 |  | < 0.1 | COc1cc2nccc(Oc3ccc(NC(=O)c4nn(CC(C)C)cc4OCC(F)(F)F)nn3)c2cc1OC [Compound 124] | 1 to 10
39 |  | ≥ 0.5 | COc1cc2nccc(Oc3ccc(NC(=O)c4nn(CCN)cc4OCC(F)(F)F)nn3)c2cc1OC [Compound 125] | ≥ 10

Row | Compound | Kd (Axl; [1]) [µM] | Kd (Axl; [2]) [µM] | IC50 (CSF1R (M-NFS-60 cells)) [µM]
40 | CCn1cc(OCC(F)(F)F)c(C(=O)Nc2ccc(Oc3ccnc4cc(OC)c(OC)cc34)cn2)n1 [Compound 4] | 0.0011 | < 0.1 | < 1
